Measured values as given in patent US10946051B2, “Strain of Bifidobacterium animalis subsp. lactis CECT 8145 and use thereof for the treatment and/or prevention of excess weight and obesity and associated diseases” (priority 2013, dated 2021).
In brackets after ≈: the same amount, converted by molar mass. Like-named read-outs stand apart in the source and are kept apart here.

Tested on: strain BIF-1
Experiment: Antibiotic resistance profile (minimum inhibitory concentration)
Type: cell-based, Bifidobacterium animalis subsp. lactis
Experimental: Specifically, the production of unwanted metabolites was evaluated: lactic acid isomer production (Table 9), bile-salt deconjugation (Table 10) and biogenic amine production (Table 11), and the antibiotic resistance profile (Table 12).

[1] = Bifidobacterium animalis, BIF1; read-out: CMI (minimum inhibitory concentration of antibiotics)

| Molecule | MIC [1] | also measured |
| --- | --- | --- |
| CC1(C)S[C@@H]2[C@H](NC(=O)[C@H](N)c3ccccc3)C(=O)N2[C@H]1C(=O)O [Ampicillin] | 2 µg/mL (≈ 5.72 µM) | – |
| O=C(N[C@H](CO)[C@H](O)c1ccc([N+](=O)[O-])cc1)C(Cl)Cl [Chloramphenicol] | 4 µg/mL (≈ 12.4 µM) | – |
| CC[C@H]1OC(=O)[C@H](C)[C@@H](O[C@H]2C[C@@](C)(OC)[C@@H](O)[C@H](C)O2)[C@H](C)[C@@H](O[C@@H]2O[C@H](C)C[C@H](N(C)C)[C@H]2O)[C@](C)(O)C[C@@H](C)C(=O)[C@H](C)[C@@H](O)[C@]1(C)O [Erythromycin] | 0.5 µg/mL (≈ 0.681 µM) | – |
| NC[C@H]1O[C@H](O[C@H]2[C@H](O)[C@@H](O[C@H]3O[C@H](CO)[C@@H](O)[C@H](N)[C@H]3O)[C@H](N)C[C@@H]2N)[C@H](O)[C@@H](O)[C@@H]1O [Kanamycin] | 128 µg/mL (≈ 264 µM) | – |
| [H]/N=C(/N)N[C@H]1[C@H](O)[C@@H](O)[C@H](O[C@@H]2O[C@@H](C)[C@](O)(C=O)[C@H]2O[C@@H]2O[C@@H](CO)[C@H](O)[C@@H](O)[C@@H]2NC)[C@@H](N/C(N)=N\[H])[C@@H]1O [Streptomycin] | 128 µg/mL (≈ 220 µM) | – |
| CN(C)[C@@H]1C(O)=C(C(N)=O)C(=O)[C@@]2(O)C(O)=C3C(=O)c4c(O)cccc4[C@@](C)(O)[C@H]3C[C@@H]12 [Tetracycline] | 8 µg/mL (≈ 18 µM) | – |
| CN[C@H](CC(C)C)C(=O)N[C@H]1C(=O)N[C@@H](CC(N)=O)C(=O)N[C@H]2C(=O)N[C@H]3C(=O)N[C@H](C(=O)N[C@H](C(=O)O)c4cc(O)cc(O)c4-c4cc3ccc4O)[C@H](O)c3ccc(c(Cl)c3)Oc3cc2cc(c3O[C@@H]2O[C@H](CO)[C@@H](O)[C@H](O)[C@H]2O[C@H]2C[C@](C)(N)[C@H](O)[C@H](C)O2)Oc2ccc(cc2Cl)[C@H]1O [Vancomycin] | – | MIC (Bifidobacterium animalis, BIF1, read-out: CMI (minimum inhibitory concentration of antibiotics)): 1 µg/mL (≈ 0.69 µM) |
| Gentamicin | – | CMI (minimum inhibitory concentration of antibiotics) (obtained for strain BIF-1): 64 µg/mL |
